Columns and labels:
Cytochrome P450 2A6 = molecular target: T1, Cytochrome P450 2A6 (Homo sapiens, UniProt P11509); test: Binding affinity to full length recombinant truncated non-catalytic N-terminal transmembrane helix containing C-terminal 4xHis tagged human CYP2A6dH expressed in Escherichia coli by HTS assay; type: ADME
T1 sequence (P11509 whole entry): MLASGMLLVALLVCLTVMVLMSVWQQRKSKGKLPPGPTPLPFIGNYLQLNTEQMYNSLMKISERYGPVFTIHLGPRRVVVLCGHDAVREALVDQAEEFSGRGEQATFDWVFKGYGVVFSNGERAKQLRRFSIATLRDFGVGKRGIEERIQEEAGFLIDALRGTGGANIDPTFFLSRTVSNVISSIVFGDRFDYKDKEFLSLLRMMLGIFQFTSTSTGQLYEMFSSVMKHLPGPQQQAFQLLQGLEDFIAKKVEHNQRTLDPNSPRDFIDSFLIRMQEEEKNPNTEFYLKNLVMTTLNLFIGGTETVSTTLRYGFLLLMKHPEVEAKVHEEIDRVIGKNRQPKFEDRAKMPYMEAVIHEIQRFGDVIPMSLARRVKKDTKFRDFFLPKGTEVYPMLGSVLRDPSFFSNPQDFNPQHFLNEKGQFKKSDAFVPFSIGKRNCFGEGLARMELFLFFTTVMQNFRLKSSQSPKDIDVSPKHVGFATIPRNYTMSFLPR

Homo sapiens = species on record: Homo sapiens; test: Selectivity ratio of Kd for full length recombinant truncated non-catalytic N-terminal transmembrane helix containing C-terminal 4xHis tagged human CYP2A13dH expressed in Escherichia coli to Kd for full length recombinant truncated non-catalytic N-terminal transmembrane helix containing C-terminal 4xHis tagged human CYP2A6dH expressed in Escherichia coli

Compound | Kd (Cytochrome P450 2A6) | Selectivity ratio (Homo sapiens)
Cc1ccccc1CN1CCOCC1 | Not Active | –
Fc1cccc(Cl)c1CN1CCOCC1 | Not Active | –
CC1CN(Cc2cccc(Cl)c2Cl)CC(C)O1 (stereo unspecified) | – | 12.9
Clc1ccccc1CN1CCOCC1 | Not Active | –
Brc1ccccc1CN1CCOCC1 | Not Active | –
Fc1ccccc1CN1CCOCC1 | Not Active | –
